Data from patent US20240025906A1 (NEURON23, INC., priority 2022, published 2024).

How the values were obtained:
[1] = system: JAK1/TYK2 pSTAT5 (Tyr694/699) in THP-1 cell line; assay: IFNa-stimulated JAK1/TYK2 pSTAT5 (Tyr694/699) inhibition cellular assay, AlphaLISA; assay type: cell-based; details: Homo sapiens; THP-1 cells, IFNa-stimulated, AlphaLISA (Assay B); read-out: Cellular_THP1_IFNa-pSTATS_TYK2
Method in brief: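 The readout is AlphaLISA signal at 615 nm for phospho-STAT5 in THP-1 lysates after IFNa stimulation (added at 100 ng/mL, 30 min, 37 °C). Cells had compound for 1 h beforehand across eight 6-fold concentrations up to 10000 nM final. IC50s are 4PL fits with bottom and Hill slope constrained.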

TYK2 JH2 = target: T1, TYK2 JH2 (Homo sapiens, UniProt P29597); assay: TYK2 JH2 binding assay (KINOMEscan KdELECT competitive binding); details: TYK2 JH2 domain, KINOMEscan KdELECT (Assay A); read-out: Biochemical TYK2_DiscoverX_JH2_BND_Kd
T1 construct: purchased DiscoverX (KINOMEscan KdELECT service); host or cells: E. coli BL21-derived (T7 phage display) or HEK-293
T1 sequence (P29597 589-875 limits assumed): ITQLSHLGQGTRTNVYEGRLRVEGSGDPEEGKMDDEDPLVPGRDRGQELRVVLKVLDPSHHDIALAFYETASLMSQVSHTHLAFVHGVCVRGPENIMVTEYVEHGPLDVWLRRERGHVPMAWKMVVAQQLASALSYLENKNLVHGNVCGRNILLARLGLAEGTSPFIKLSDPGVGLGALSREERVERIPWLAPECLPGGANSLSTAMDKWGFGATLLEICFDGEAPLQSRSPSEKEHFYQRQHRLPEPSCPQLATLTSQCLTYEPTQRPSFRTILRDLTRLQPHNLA
Method in brief: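 Competition binding, KdELECT format. Kinase (phage-tagged, E. coli BL21-derived host; or HEK-293, DNA-tagged) + ligand-coated streptavidin beads + cpd, 1 h RT, final DMSO 0.9%. Wash, elute 30 min with 0.5 μM non-biotinylated ligand; qPCR readout. Kd: 11-pt, 3-fold series.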

IC50 [1] | Kd (TYK2 JH2) | SMILES
≤ 500 nM | ≤ 100 nM | CNc1ncc(-c2cc3ccc(N4CCOCC4)cn3n2)c2cc(NC(=O)C3CC3)ncc12 [Example 796, N-(8-(methylamino)-5-(6-morpholinopyrazolo[1,5-a]pyridin-2-yl)-2,7-naphthyridin-3-yl)cyclopropanecarboxamide]
≤ 500 nM | ≤ 100 nM | CNc1ncc(-c2cc3ccc(N4CCO[C@@H](C)C4)cn3n2)c2cc(NC(=O)[C@H]3C[C@H]3C)ncc12 [Example 798, (1S,2R)-2-methyl-N-(8-(methylamino)-5-(6-((S)-2-methylmorpholino)pyrazolo[1,5-a]pyridin-2-yl)-2,7-naphthyridin-3-yl)cyclopropane-1-carboxamide]
≤ 500 nM | ≤ 100 nM | [2H]C([2H])([2H])Nc1ncc(/C=C/c2ccc(OCCC#N)cc2)c2cc(NC(=O)[C@H]3C[C@H]3C)ncc12 [Example 799, (1S,2R)—N-(5-((E)-4-(2-cyanoethoxy)styryl)-8-((methyl-d3)amino)-2,7-naphthyridin-3-yl)-2-methylcyclopropane-1-carboxamide]
≤ 500 nM | ≤ 100 nM | CNc1nc(CO)c(C#Cc2ccc(OC)cn2)c2cc(NC(=O)C3CC3)ncc12 [Example 800, N-(6-(hydroxymethyl)-5-((5-methoxypyridin-2-yl)ethynyl)-8-(methylamino)-2,7-naphthyridin-3-yl)cyclopropanecarboxamide]
≤ 500 nM | ≤ 100 nM | CNc1ncc(C#Cc2ccc3oc(C)nc3c2)c2cc(NC(=O)C3CC3)ncc12 [Example 801, N-(8-(methylamino)-5-((2-methylbenzo[d]oxazol-5-yl)ethynyl)-2,7-naphthyridin-3-yl)cyclopropanecarboxamide]
≤ 500 nM | ≤ 100 nM | CNc1ncc(C#Cc2ccnn2C)c2cc(NC(=O)C3CC3)ncc12 [Example 804, N-(5-((1-methyl-1H-pyrazol-5-yl)ethynyl)-8-(methylamino)-2,7-naphthyridin-3-yl)cyclopropanecarboxamide]
≤ 500 nM | ≤ 100 nM | CCn1ncc(C#Cc2cnc(NC)c3cnc(NC(=O)C4CC4)cc23)n1 [Example 805, N-(5-((2-ethyl-2H-1,2,3-triazol-4-yl)ethynyl)-8-(methylamino)-2,7-naphthyridin-3-yl)cyclopropanecarboxamide]
≤ 500 nM | ≤ 100 nM | CNc1ncc(C#Cc2ccc(-n3cccn3)cc2)c2cc(NC(=O)C3CC3)ncc12 [Example 806, N-(5-((4-(1H-pyrazol-1-yl)phenyl)ethynyl)-8-(methylamino)-2,7-naphthyridin-3-yl)cyclopropanecarboxamide]
≤ 500 nM | ≤ 100 nM | CNc1ncc(C#Cc2ccc3nc4n(c3c2)CCCC4)c2cc(NC(=O)C3CC3)ncc12 [Example 807, N-(8-(methylamino)-5-((1,2,3,4-tetrahydrobenzo[4,5]imidazo[1,2-a]pyridin-8-yl)ethynyl)-2,7-naphthyridin-3-yl)cyclopropanecarboxamide]
≤ 500 nM | ≤ 100 nM | CNc1ncc(C#Cc2ccc3nc4n(c3c2)CCC=C4)c2cc(NC(=O)C3CC3)ncc12 [Example 808, N-(5-((1,2-dihydrobenzo[4,5]imidazo[1,2-a]pyridin-8-yl)ethynyl)-8-(methylamino)-2,7-naphthyridin-3-yl)cyclopropanecarboxamide]
≤ 500 nM | ≤ 100 nM | CNc1ncc(C#Cc2ccc3nc4n(c3c2)CCC(F)=C4)c2cc(NC(=O)C3CC3)ncc12 [Example 809, N-(5-((3-fluoro-1,2-dihydrobenzo[4,5]imidazo[1,2-a]pyridin-8-yl)ethynyl)-8-(methylamino)-2,7-naphthyridin-3-yl)cyclopropanecarboxamide]
≤ 500 nM | ≤ 100 nM | CCc1nc2ccc(C#Cc3cnc(NC)c4cnc(NC(=O)C5CC5)cc34)cc2n1C [Example 811, N-(5-((2-ethyl-1-methyl-1H-benzo[d]imidazol-6-yl)ethynyl)-8-(methylamino)-2,7-naphthyridin-3-yl)cyclopropanecarboxamide]
